Experiments:
[1] = tested on: Echinochloa oryzicola Vasing; test: Test Example 1: herbicidal effects in paddy field soil treatment; type: in vivo; design: scale not given here; conditions: 1000 g active ingredient per hectare, 21st day after treatment
Method in brief: (§1)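 Seeds sown in puddled paddy soil flooded to 3 cm; next day, diluted wettable powder dripped onto the water surface at 1000 g active ingredient per hectare. Plants grown in a greenhouse and herbicidal effect scored on a rating scale 21 days after treatment.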

[2] = tested on: Monochoria vaginalis (Burm. f.) Presl var. plantaginea (Roxb.) Solms-Laub.; test: as above; type: in vivo; design: scale not given here; conditions: 1000 g active ingredient per hectare, 21st day after treatment
Method in brief: as §1

[3] = tested on: Scirpus juncoides Roxb. var. ohwianus. T. Koyama; test: as above; type: in vivo; design: scale not given here; conditions: 1000 g active ingredient per hectare, 21st day after treatment
Method in brief: as §1

[4] = tested on: Abutilon theophrasti medicus; test: Test Example 2: herbicidal effects in farmland soil treatment; type: in vivo; design: scale not given here; conditions: 1000 g active ingredient per hectare, 21st day after treatment
Method in brief: (§2)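 Pre-emergence soil treatment: wettable powder diluted in water sprayed on farmland soil over freshly sown seeds at 1000 g active ingredient per hectare in 1000 L/ha. Plants grown in greenhouse, herbicidal effect scored visually on a rating scale 21 days after treatment.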

Amaranthus retroflexus [5] = test: as above; type: in vivo; design: scale not given here; conditions: 1000 g active ingredient per hectare, 21st day after treatment
Method in brief: as §2

[6] = tested on: Abutilon theophrasti medicus; test: Test Example 3: herbicidal effects in farmland foliar treatment; type: in vivo; design: scale not given here; conditions: 1000 g active ingredient per hectare, 14th day after treatment
Method in brief: (§3)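 Weeds grown two weeks in farmland soil in a greenhouse, then sprayed over the foliage with diluted wettable powder at 1000 L/ha, delivering 1000 g active ingredient per hectare. Herbicidal effect scored 14 days after treatment against set rating criteria.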

Amaranthus retroflexus [7] = test: as above; type: in vivo; design: scale not given here; conditions: 1000 g active ingredient per hectare, 14th day after treatment
Method in brief: as §3

[8] = tested on: Echinochloa crus-galli (L.) P. Beauv. var. crus-galli; test: as above; type: in vivo; design: scale not given here; conditions: 1000 g active ingredient per hectare, 14th day after treatment
Method in brief: as §3

Echinochloa crus-galli = test: Test Example 2: herbicidal effects in farmland soil treatment; type: in vivo; design: scale not given here; conditions: 1000 g active ingredient per hectare, 21st day after treatment
Setaria viridis [9] = test: as above; type: in vivo; design: scale not given here; conditions: 1000 g active ingredient per hectare, 21st day after treatment
Setaria viridis [10] = test: Test Example 3: herbicidal effects in farmland foliar treatment; type: in vivo; design: scale not given here; conditions: 1000 g active ingredient per hectare, 14th day after treatment

SMILES	Herbicidal effect index, Echinochloa oryzicola [1]	Herbicidal effect index, Monochoria vaginalis [2]	Herbicidal effect index, Scirpus juncoides [3]	Herbicidal effect index, Abutilon thophrasti [4]	Herbicidal effect index, Amaranthus retroflexus (Amaranthus retroflexus [5])	Herbicidal effect index, Abutilon theoprasti [6]	Herbicidal effect index, Amaranthus retroflexus (Amaranthus retroflexus [7])	Herbicidal effect index, Echinochloa crus-galli [8]	melting point	Herbicidal effect index, Echinochloa crus-galli (Echinochloa crus-galli)	Herbicidal effect index, Setaria viridis (Setaria viridis [9])	Herbicidal effect index, Setaria viridis (Setaria viridis [10])
O=C1CCCC(O)=C1C(=O)c1cc2cccnc2n(-c2ccc3c(c2)OCCO3)c1=O [II-118, 1-(2,3-dihydrobenzo[b][1,4]dioxin-6-yl)-3-(2-hydroxy-6-oxo-1-cyclohexenecarbonyl)-1,8-naphthyridin-2(1H)-one]	5	5	5	5	5	5	5	5	226 to 228 °C	5	5	5
Cn1c(=O)c(C(=O)C2=C(O)CCCC2=O)cc2ccc(C(F)(F)F)nc21 [II-136, 3-(2-hydroxy-6-oxo-1-cyclohexenecarbonyl)-1-methyl-7-(trifluoromethyl)-1,8-naphthyridin-2(1H)-one]	5	5	5	4	5	5	5	5	194 to 196 °C	5	4	4
COc1ccc(-n2c(=O)c(C(=O)C3=C(O)CCCC3=O)cc3cccnc32)cn1 [II-92, 3-(2-hydroxy-6-oxo-1-cyclohexenecarbonyl)-1-(6-methoxy-3-pyridinyl)-1,8-naphthyridin-2(1H)-one]	5	5	5	5	5	5	5	5	220 to 222 °C	5	4	5
O=C1CCCC(O)=C1C(=O)c1cc2cccnc2n(-c2ccccc2)c1=O [II-41, 3-(2-hydroxy-6-oxo-1-cyclohexenecarbonyl)-1-phenyl-1,8-naphthyridin-2(1H)-one]	5	5	5	5	5	5	5	5	212 to 214 °C	5	5	5
Cn1c(=O)c(C(=O)C2=C(O)CCCC2=O)cc2cccnc21 [II-2, 3-(2-hydroxy-6-oxo-1-cyclohexenecarbonyl)-1-methyl-1,8-naphthyridin-2(1H)-one]	5	5	5	5	5	5	5	5	151 to 153 °C	5	5	4
